Laboratory results taken from patent publication US20260209152A1, “Substituted Hydroxystilbene Compounds and Derivatives, Synthesis and Uses Thereof” (Kynan Duke IP, LLC, priority 2019, published 2026).
Values joined by “and” are separate entries in the source; they are usually repeats but may differ in a detail not shown here. Identical values can stand only once. Like-named read-outs stand apart in the source and are kept apart here.

Assays:
[1] = test system: IL-8 release from IL-17A and TNFα-induced primary human keratinocytes; assay: Keratinocyte IL-8 release (assay number 1250); assay type: cell-based; conditions: for EC50 / Emax: Homo sapiens, Keratinocyte; for Max Eff.: IL-8 (1250): highest effect as percentage of control maximum effect; for Emax: read-out: maximum efficacy, IL-8 release
Experimental: Inhibition of IL-8 release from IL-17A and TNFα-induced primary human keratinocytes LEO Pharma Open Innovation assay number 1250 openinnovation.leo-pharma.com
The inflammatory skin disease psoriasis is characterized by cytokines IL-17A and TNFα. In the present assay, primary human keratinocytes are stimulated with a mixture of these cytokines, and the release of IL-8 (also called CXCL8) is measured in the culture supernatant by proximity homogenous time-resolved fluorescence (HTRF).
• Detach the cells as described above. • Resuspend pellet in 10 ml EpiLife Medium with HKGS Kit but without hydrocortisone • Filter the cells though a 37 µm strainer. • Count cells using a cell counter. • Seed Human Epidermal Keratinocytes, adult (HEKa) cells in 384-well view plates 3500 c/w/40 μL. Use cell media with supplement but without hydrocortisone as assay medium. • Place the plates with lids on in a humidity chamber with lid (24.5×24.5 cm box added H2O in the bottom). • Incubate plates over night at 37° C., 5% CO2/95% air.
• Prepare compound-containing source plate, i.e. titrations in DMSO to be transferred to the assay plate. • Empty the assay plate, and re-add 25 μL assay medium. • Add 75 nL compounds and controls from the source plate to the assay plate (with cells). • Add 25 μL assay medium and incubate for 2 hours. • Add 25 μL stimulation mix in assay medium (recombinant human interleukin 17A and Tumor necrosis factor-alpha) to give a final concentration of 10 ng/mL of both cytokines. • Incubate plates at 37° C., 5% CO2/95% air for 3 days.
• Remove plates from incubation and equilibrate to room temperature for 30 minutes. • Transfer 2 μL supernatant to white proxi 384-well plates for IL-8 detection. • Add 2 μL assay medium • Prepare IL-8 HTRF mix (according to manufactory protocol) and add 2 μL pr well. • Seal and incubate for 3 hours and read fluorescence in a plate reader.
IL-8 concentration in the supernatant is measured using homogeneous time-resolved fluorescence resonance (TR-FRET). The assay is quantified by measuring fluorescence at 665 nm (proportional to IL8 concentration) and 620 nm (control). A ratio 665/620*1000 is calculated as a representation of the amount of IL-8 in the supernatant.

[2] = test system: Pancreatic MIA PaCa-2; assay: CellTiter Glo cell viability assay; assay type: cell-based, human
In short: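 MIA PaCa-2 human pancreatic cancer cells were plated in 96-well plates, 1.7*10^3 cells/well in quadruplicate, and compounds were added as serial dilutions to build dose-response curves. Viability was read by CellTiter Glo Luminescence (Promega) on a Varioskan LUX reader. Relative luminescence was plotted against log dose, and IC50 was obtained by nonlinear regression in GraphPad Prism 7.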

[3] = test system: primary human keratinocytes; assay: Cell viability in keratinocyte CCL2 assay (assay number 1243); assay type: cell-based; conditions: Homo sapiens
Text: (§1) • 1. Determination of inhibition of CCL2 release from IL-4, IL-13, IL-22 and IFN-γ-stimulated primary human keratinocytes [assay number 1280] and determination of the effect on cell viability [assay number 1243]. • 2. Determination of inhibition of IL-8 release from IL-17A and TNFα-induced primary human keratinocytes [assay number 1250] and determination of the effect on cell viability [assay number 1244]. • 3. Determination of inhibition of IL-17A secretion from human PBMC stimulated with antiCD3/antiCD28-coated beads [assay number 1321] and determination of the effect on cell viability [assay number 1322]. • 4. Determination of inhibition of IL-4 and IL-2 secretion from human CD4-positive T-cells stimulated with antiCD2/antiCD3/antiCD28-coated beads [assay number 1297, 1298] and determination of the effect on cell viability [assay number 1299].

[4] = as above; assay type: cell-based, human; conditions: human
Text: as §1

[5] = test system: Kidney A-498; assay: CellTiter Glo cell viability assay; assay type: cell-based, human
In short: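 Cell viability of the human renal line A498 was measured by luminescence using CellTiter Glo (Promega), following the manufacturer's protocol, after plating 1.7*10^3 cells/well in 96-well plates. Relative luminescence units were plotted against log dose, and dose-response curves were fitted by nonlinear regression in GraphPad Prism 7 to derive IC50 values.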

[6] = test system: primary human keratinocytes; assay: Cell viability in keratinocyte IL-8 assay (assay number 1244); assay type: cell-based; conditions: Homo sapiens
Text: as §1

[7] = inhibition of IL-8 release, IL-17A and TNFα-induced keratinocytes, read-out: Abs EC50: IL-8 (1250)
[8] = Homo sapiens, MIA PaCa-2, 72 h, 3 Days of treatment, 18 2-fold dilutions 5-0.00003 μM, read-out: Average IC50
[9] = Homo sapiens, MIA PaCa-2, 72 h, Table 4: 3 Days of treatment, 18 2-fold dilutions 5-0.00003 μM, Average (1, 8) or single Exp A-D, read-out: IC50
[10] = Homo sapiens, MIA PaCa-2, 120 h, Day 5 upon drug treatment, 10 dosages 0.0001-20 μM (Compound 8: 18 dosages 0.000038146 to 5 μM), read-out: IC50
[11] = Homo sapiens, MIA PaCa-2, MIA PaCa-2/CRL-1420, 11 dilutions 3-0.00001 μM, Table 6, read-out: IC50
[12] = Homo sapiens, MIA PaCa-2, Table 5A: 11 dilutions 3-0.00001 μM, average of experiments, read-out: IC50 average
[13] = Keratinocyte, cell viability in CCL2 assay, read-out: Abs EC50: Viab (1243)
[14] = maximum reduction of cell viability in CCL2 assay, read-out: Max Eff.: Viab (1243)
[15] = Homo sapiens, A498, 72 h, 3 Days of treatment, 18 2-fold dilutions 5-0.00003 μM, read-out: Average IC50
[16] = Homo sapiens, A498, 72 h, Table 4: 3 Days of treatment, 18 2-fold dilutions 5-0.00003 μM, Average (1, 8) or single Exp A-D, read-out: IC50
[17] = Homo sapiens, A498, A-498/HTB-44, 11 dilutions 3-0.00001 μM, Table 6, read-out: IC50
[18] = Homo sapiens, A498, Table 5A: 11 dilutions 3-0.00001 μM, average of experiments, read-out: IC50 average
[19] = Keratinocyte, cell viability in IL-8 assay, read-out: Abs EC50: Viab (1244)
[20] = IC50 of 1 [KYN-001] vs 8 [KYN-119], 3 Days
[21] = Table 5A: 11 dilutions 3-0.00001 μM, average of experiments, read-out: IC50 average
[22] = read-out: EC50, inhibition of IL-8 release
[23] = Homo sapiens, MIA PaCa-2, Table 5A: 11 dilutions 3-0.00001 μM, single experiments Exp E-K, read-out: IC50
[24] = Table 5A: 11 dilutions 3-0.00001 μM, single experiments Exp E-K, read-out: IC50
[25] = keratinocyte CCL2 assay, read-out: EC50, cell viability
[26] = keratinocyte CCL2 assay, read-out: maximum reduction of cell viability
[27] = keratinocyte IL-8 assay, read-out: EC50, cell viability
[28] = Homo sapiens, A498, Table 5A: 11 dilutions 3-0.00001 μM, single experiments Exp E-K, read-out: IC50

Row | SMILES | EC50 [1, 7] | IC50 [2, 11] | IC50 [2, 12] | IC50 [2, 23] | Max Eff.: IL-8 (1250) [1] | EC50 [3, 13] | cytotoxicity [4, 14] | IC50 [5, 17] | IC50 [5, 18] | EC50 [6, 19] | IC50 [5, 28] | also measured
1 | CCOc1cc(O)cc(/C=C/c2ccc(O)c(O)c2)c1CC=C(C)C [Compound 20, (E)-4-(3-Ethoxy-5-hydroxy-2-(3-methylbut-2-en-1-yl)styryl)benzene-1,2-diol] | 321 nM | 54.9 nM | – | – | 93% | 442 nM | 61% | 620 nM | – | 221 nM | – | –
2 | COc1cc(/C=C/c2cc(O)cc(OC)c2CC=C(C)C)ccc1NC=O [Compound 27, (E)-N-(4-(5-hydroxy-3-methoxy-2-(3-methylbut-2-en-1-yl)styryl)-2-methoxyphenyl)formamide] | 46 nM | 21.4 nM | 15 nM | 10 to 100 nM | 75% | 41 nM | – | 642 nM | 728 nM | 32 nM | – | EC50 [1, 22]: 46 nM; Emax [1]: 75%; Fold more potent than 1 [KYN-001] ([2]; MIA PaCa-2 cells): approximately 5; IC50 [2, 24]: 14.7 nM and 13.4 nM and 16.8 nM; EC50 [3, 25]: 41 nM; cytotoxicity [4, 26]: 67%; EC50 [6, 27]: 32 nM
3 | COc1cc(/C=C/c2cc(O)cc(OC)c2CC=C(C)C)ccc1NC(=O)CN [Compound 31, (E)-2-amino-N-(4-(5-hydroxy-3-methoxy-2-(3-methylbut-2-en-1-yl)styryl)-2-methoxyphenyl)acetamide] | 364 nM | – | – | 3180 nM | 105% | 431 nM | 86% | – | – | 416 nM | > 3000 nM | –
4 | CCOc1cc(O)cc(/C=C/c2ccc(NC(=O)C(=O)O)c(OC)c2)c1CC=C(C)C [Compound 35, (E)-2-((4-(3-Ethoxy-5-hydroxy-2-(3-methylbut-2-en-1-yl)styryl)-2-methoxyphenyl)amino)-2-oxoacetic acid] | 2950 nM | – | – | – | 77% | 5000 nM | 30% | – | – | 5000 nM | > 3000 nM | –

Further compounds by falling EC50 [1, 7], results first:

Row | EC50 [1, 7] | IC50 [2, 11] | IC50 [2, 12] | IC50 [2, 23] | SMILES | Max Eff.: IL-8 (1250) [1] | EC50 [3, 13] | cytotoxicity [4, 14] | IC50 [5, 17] | IC50 [5, 18] | EC50 [6, 19] | IC50 [5, 28] | also measured
5 | 80 nM | 109 nM | 80.6 nM | – | COc1cc(/C=C/c2cc(O)cc(OC)c2CC=C(C)C)ccc1O [Compound 1, (E)-3-(4-hydroxy-3-methoxystyryl)-5-methoxy-4-(3-methylbut-2-en-1-yl)phenol] | 94% | 202 nM | 77% | 1070 nM | 1140 nM | 90 nM | – | IC50 [2, 8]: 127 nM; IC50 ([2]; Homo sapiens, MIA PaCa-2, 72 h, Day 3 upon drug treatment, 10 dosages 0.0001-20 μM, read-out: IC50): 204 nM; IC50 [2, 9]: 888 nM; IC50 [2, 10]: 50.7 nM; IC50 [5, 15]: 2810 nM; IC50 [5, 16]: 109 nM
6 | 44 nM | 12.9 nM | – | < 1 nM | CCOc1cc(O)cc(/C=C/c2ccc(NC=O)c(OC)c2)c1CC=C(C)C [Compound 28, (E)-N-(4-(3-Ethoxy-5-hydroxy-2-(3-methylbut-2-en-1-yl)styryl)-2-methoxyphenyl)formamide] | 85% | 124 nM | – | 198 nM | – | 35 nM | 100 to 1000 nM | reduction of IL-8 release, in words [1]: medium potency reduction of IL-8 release; EC50 [1, 22]: 44 nM; Emax [1]: 85%; IC50 [2, 24]: 0.94 nM and 0.936 nM; EC50 [3, 25]: 124 nM; cytotoxicity [4, 26]: 68%; IC50 [5, 24]: 180 nM and 181 nM; EC50 [6, 27]: 35 nM
7 | 37 nM | 23.4 nM | 25 nM | – | CCOc1cc(O)cc(/C=C/c2ccc(O)c(OC)c2)c1CC=C(C)C [Compound 8, (E)-3-Ethoxy-5-(4-hydroxy-3-methoxystyryl)-4-(3-methylbut-2-en-1-yl)phenol] | 107% | 235 nM | 99% | 401 nM | 360 nM | 32 nM | – | IC50 [2, 8]: 18.1 nM; IC50 [2, 9]: 210 nM; IC50 [2, 10]: ~0.47 nM; Fold IC50 [2, 20]: 7.0; IC50 [2, 21]: 25.5 nM; IC50 [5, 15]: 329 nM; IC50 [5, 16]: 10.3 nM; Fold IC50 [5, 20]: 8.5; IC50 [5, 21]: 430 nM
